# Where “and” joins values, the source holds several entries; their conditions need not be identical. Identical values can stand only once.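 How tested: cells in 96-well plates exposed to compound for 48 hours at five concentrations. Abbreviation: GI50, concentration required for 50% inhibition of growth. TGI: total growth inhibition.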
# Tests used:
# Assay in all cases: NCI-60 cell line screen, 48 h
# [1] = test system: DU-145 prostate
# [2] = test system: SK-MEL-28 melanoma
# [3] = test system: OVCAR-8 ovarian
# [4] = test system: SK-MEL-5 melanoma
# [5] = test system: IGROV1 ovarian
# [6] = test system: HCC-2998 colon
# [7] = test system: RXF 393 renal
# [8] = test system: PC-3 prostate
# [9] = test system: NCI-H522 lung
# [10] = test system: MCF7 breast
Structure (SMILES),TGI [1],TGI [2] [µM],TGI [3],TGI [4],TGI [5],TGI [6] [µM],TGI [7],TGI [8],TGI [9],TGI [10] [µM],GI50 [1] [µM],GI50 [2] [µM],GI50 [4] [µM],GI50 [5] [µM],GI50 [6] [µM],GI50 [7] [µM],GI50 [8] [µM],GI50 [10] [µM]
O=C1c2cccnc2C(=O)c2c1nc1ccccc1c2-c1ccc2c3c(nc4ccccc42)C(=O)c2cccnc2-c13,1.34 µM,13.5,2.59 µM,1.77 µM,1.39 µM,9.28,9.68 µM,37.2 µM,4.58 µM,8.05,,,,,,,,
CCOC(=O)C(NC(=O)CC)(Nc1ccccc1F)C(F)(F)F (stereo not drawn),> 100 µM,> 100,> 100 µM,> 100 µM,> 100 µM,> 100,> 100 µM,> 100 µM,> 100 µM,> 100,,,,,,,,
CC(C)(C)[Si](C)(C)OC1CCOC1(O)c1ccccn1 (stereo not drawn),> 100 µM,> 100,> 100 µM,> 100 µM,> 100 µM,> 100,> 100 µM,> 100 µM,> 100 µM,> 100,,,,,,,,
COC(=O)c1ccc2cc(O)ccc2c1,> 100 µM,> 100,> 100 µM,> 100 µM,> 100 µM,> 100,> 100 µM,> 100 µM,> 100 µM,> 100,,,,,,,,
Brc1ccc(/C(N=N/C(=N\Sc2ccccc2)c2ccc(Br)cc2)=N/Sc2ccccc2)cc1,> 100 µM,> 100,> 100 µM,> 100 µM,> 100 µM,> 100,> 100 µM,> 100 µM,> 100 µM,> 100,,,,,,,,
O=C(O)CCSc1ncnc2nc[nH]c12,> 100 µM,> 100,> 100 µM,> 100 µM,> 100 µM,> 100,> 100 µM,> 100 µM,> 100 µM,> 100,,,,,,,,
O=C1CCC(CCc2nc3ccccc3[nH]2)(c2ccccc2)C(=O)N1 (stereo not drawn),> 100 µM,> 100,> 100 µM,> 100 µM,> 100 µM,> 100,> 100 µM,> 100 µM,> 100 µM,> 100,,,,,,,,
COC(=O)[C@@H]1[C@H]2CC[C@]3(C)[C@@H](OC(C)=O)CC[C@H]3[C@@H]2CC[C@H]1C1(C)SCCS1,> 100 µM,> 100,70.6 µM,21.4 µM,> 100 µM,86.2,40.6 µM,86 µM,56.7 µM,83,,,,,,,,
O=C(CCl)Nc1ccc(C(=O)N/N=C/c2ccc(Cl)cc2)cc1,8.44 µM and 27 µM,16.8,5.29 µM and 6.97 µM,4.45 µM and 13.6 µM,3.86 µM and 2.34 µM,22.5,2.39 µM and 6.52 µM,3.53 µM and 21.9 µM,3.6 µM and 3.61 µM,22.6,13.5,3.59,2.14,1.85,3.85,2.09,10.1,10
CN1C2CCC1C(CO)C(=O)C2 (stereo not drawn),> 100 µM,> 100,> 100 µM,> 100 µM,> 100 µM,> 100,> 100 µM,> 100 µM,34.2 µM,56.5,,,,,,,,
CC1CCc2sc3[nH]c(=S)n(C)c(=O)c3c2C1 (stereo not drawn),> 100 µM,> 100,> 100 µM,> 100 µM,> 100 µM,82.5,> 100 µM,72 µM,84.5 µM,> 100,,,,,,,,
C=CCN(c1cc(OC)c2[nH]c(C(=O)O)c(C)c2c1[N+](=O)[O-])S(C)(=O)=O,> 100 µM,> 100,> 100 µM,> 100 µM,> 100 µM,> 100,> 100 µM,> 100 µM,> 100 µM,> 100,,,,,,,,
C[C@@H](CCO)OC1OC(COC(=O)C(C)(C)C)C(OC(=O)C(C)(C)C)C(OC(=O)C(C)(C)C)C1OC(=O)C(C)(C)C (stereo partly drawn),> 100 µM,> 100,> 100 µM,58.1 µM,> 100 µM,31.4,61 µM,> 100 µM,95.7 µM,> 100,,,,,,,,
O=C1CCCC2=C1CC1=C(CCCC1=O)N2c1ccc(-c2ccccc2)cc1,> 100 µM,> 100,> 100 µM,> 100 µM,> 100 µM,> 100,> 58.9 µM,> 100 µM,> 100 µM,> 100,,,,,,,,

# Source: PubChem BioAssay (NCI)
